Active and inactive are the calls of the source.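 The calls were made as follows: active = AC50 no more than ten times the top concentration tested, that is within one log above it; inconclusive = flat curve fit with activity between 30% and 70%, or invalid poor fit; inactive = AC50 beyond ten times the top tested dose.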
The compounds below were run on S. cerevisiae Mot1-301 ts growth rescue, BacTiter-Glo ATP luminescence (assay: growth rescue of Mot1-301 ts yeast, confirmation, SUMOylation pathway inhibitor project, whole organism, S. cerevisiae, Mot1-301 ts mutant, luminescence, dose retest (AID 463204);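 also: growth at restrictive 38.5 degrees C of Mot1-301 OY566 strain; actives raise luminescence by restoring growth of the ts mutant at high temperature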).
With `COC(=O)C(NC(C)=O)(Nc1nc2ccc(S(C)(=O)=O)cc2s1)C(F)(F)F` (stereo not drawn) the AC50 was > 42 µM (inactive).
In the case of `O=C(Oc1ccccc1N1C(=O)C2CC=CCC2C1=O)c1ccc(Br)cc1` (stereo not drawn), the AC50 is reported as > 42 µM (inactive).
With `O=c1c2ccccc2ncn1Cc1ccc2c(c1)OCO2` the AC50 was > 42 µM (inactive).
In the case of `COc1cc(/C=N/NC(=O)c2cccnc2)ccc1OCC(=O)N1CCOCC1`, the AC50 is reported as > 42 µM (inactive).
For `CCC1C(c2ccccc2)NC(c2ccccc2)CC1(O)c1ccc(F)cc1` (stereo not drawn), the AC50 was > 42 µM (inactive).
For `COc1ccc(OCC(=O)O/N=C(\N)Cc2ccc(Cl)cc2)cc1`, the AC50 was > 42 µM (inactive).
For `O=c1c2ccccc2nc(COc2ccccc2)n1/N=C/c1cn[nH]c1-c1ccccc1`, the AC50 was > 42 µM (inactive).
For `COC(C(=O)Nc1ccnn1C1CCN(Cc2cnn(C)c2)CC1)c1ccccc1` (stereo not drawn), the AC50 was > 42 µM (inactive).
For `CCOC(=O)c1c(CN2CCCCC2)n(C)c2cc(Br)c(O)c(CN(C)C)c12`, the AC50 was > 42 µM (inactive).
For `CC1=C(C(=O)Nc2ccccc2)C(c2ccccc2[N+](=O)[O-])NC(=O)N1` (stereo not drawn), the AC50 was > 42 µM (inactive).
In the case of `Cc1c(C(=O)NC(=S)Nc2ccccc2N2CCCC2)cccc1[N+](=O)[O-]`, the AC50 is reported as > 42 µM (inactive).
`O=C(NCCc1c[nH]c2ccccc12)c1cc(S(=O)(=O)N2CCCCC2)ccc1N1CCOCC1` was tested, and the AC50 was > 42 µM (inactive).
For `Nc1ccc(C2(c3ccc(N)cc3)OC(=O)c3ccccc32)cc1`, the AC50 was > 42 µM (inactive).
For `Cc1ccc(-c2csc3ncn(CC(=O)N4CCOCC4)c(=O)c23)cc1`, the AC50 was > 42 µM (inactive).
In the case of `O=C(CN1CCN(Cc2ccc(Cl)cc2)CC1)N/N=C/c1ccncc1`, the AC50 is reported as > 42 µM (inactive).
`O=C(c1ccc2c(=O)n(Cc3ccccc3Cl)c(=S)[nH]c2c1)N1CCOCC1` was tested, and the AC50 was > 42 µM (inactive).
`CN(C)C1(c2nnnn2-c2ccc(Cl)cc2)CCCCC1` showed an AC50 of 27.9 µM.
In the case of `CCC12CN3CCN(CC(C3)/C1=N/NC(=O)c1ccncc1)C2`, the AC50 is reported as > 42 µM (inactive).
For `O=C(CN1CCN(C(=O)c2ccccc2)CC1)Nc1ncc(Br)cc1Br`, the AC50 was > 42 µM (inactive).
`CCOC(=O)c1c(C)n(C)c2cc(-c3ccc(C)cc3)c(O)cc12` was tested, and the AC50 was > 42 µM (inactive).
`CCOC(=O)C1CCCN(C(=O)c2cc(-c3ccc(F)cc3)nc3ccccc23)C1` (stereo not drawn) was tested, and the AC50 was > 42 µM (inactive).
With `Cc1cccc(OCC(O)CN2C(C)(C)CC(O)CC2(C)C)c1` (stereo not drawn) the AC50 was > 42 µM (inactive).
For `CC(C)(C)Cc1nc(-c2ccccn2)no1`, the AC50 was > 42 µM (inactive).
For `OC1CN=C2CCCc3c2n(c2ccc(Cl)cc32)C1` (stereo not drawn), the AC50 was > 42 µM (inactive).
Compound `N#CC(CC(=O)c1ccc(F)cc1)c1ccc2c(c1)OCO2` (stereo not drawn) has an AC50 of 40.2 µM.
With `CCN1C(=O)N(C)[C@@H](c2ccccc2)C(C(=O)OC)=C1C` the AC50 was > 42 µM (inactive).
`CC1=C(C#N)S(=O)(=O)C(C#N)C(c2ccccc2)C1` (stereo not drawn) was tested, and the AC50 was > 42 µM (inactive).
For `Cc1cc(C)cc(OC(=O)CS(=O)c2ccc(C(F)(F)F)cc2[N+](=O)[O-])c1` (stereo not drawn), the AC50 was 3.48 µM.
For `CSc1cccc(NC(=S)N2CCCN(Cc3ccccc3F)C2)c1`, the AC50 was > 42 µM (inactive).
For `Cc1cc(C)cc(NC(=O)CS(=O)(=O)c2ccccc2)c1`, the AC50 was > 42 µM (inactive).
Work on `Cc1cc2c3c(c1)C1(SCC(=O)N1c1ccc(F)cc1)C(=O)N3C(C)(C)CC2C` (stereo not drawn) yielded an AC50 of 6.97 µM.
`C=C1C(O)[C@@H]2O[C@]3(CC[C@H](/C=C/C(C)[C@@H]4CC(C)=CC5(O[C@H](C[C@@](C)(O)C(=O)O)CCC5O)O4)O3)CC[C@H]2O[C@@H]1C(O)CC(C)[C@H]1OC2(CCCCO2)CCC1C` (stereo partly drawn) gave an AC50 of 26 µM.
For `Cc1ccc2nc3c(cc(C(=O)NCCN4CCOCC4)c(=N)n3CCCN3CCOCC3)c(=O)n2c1`, the AC50 was > 42 µM (inactive).
`COc1ccc(-n2c(-c3ccccc3)nc3ccccc3c2=O)cc1` was tested, and the AC50 was > 42 µM (inactive).
In the case of `COc1ccc(C(=O)Nn2c(SCC(=O)NCc3ccccc3)nc3ccccc3c2=O)cc1`, the AC50 is reported as > 42 µM (inactive).
For `C=CCN1C(=O)/C(=C2/Sc3ccc(OC)cc3N2C)SC1=Nc1ccccc1`, the AC50 was > 42 µM (inactive).
`CCc1c(C)c2ccc(OCC(=O)OC(C)C)c(C)c2oc1=O` was tested, and the AC50 was > 42 µM (inactive).
In the case of `Cc1ccsc1C(=O)NCCc1ccc(S(N)(=O)=O)cc1`, the AC50 is reported as > 42 µM (inactive).
With `Cc1c(NC(=O)c2ccc(N(C)S(C)(=O)=O)cc2)c(=O)n(-c2ccccc2)n1C` the AC50 was > 42 µM (inactive).
With `CCc1c(C)nc(N2CCN(Cc3ccccc3)CC2)[nH]c1=O` the AC50 was > 42 µM (inactive).
`COc1ccc(C(=O)NCC(=O)Nc2ccccc2)cc1OC` was tested, and the AC50 was > 42 µM (inactive).
Compound `CCCCc1ccc(NC(=S)NCc2cccs2)cc1` has an AC50 of 41.9 µM.
With `CCOC(=O)c1oc2cc(OC(C)=O)ccc2c(=O)c1-c1ccc(OC)c(OC)c1` the AC50 was > 42 µM (inactive).
`Cc1cc(=O)n2[nH]c(-c3ccc(F)cc3)nc2n1` was tested, and the AC50 was > 42 µM (inactive).
In the case of `Cc1nnc(NC(=O)c2cccc(S(=O)(=O)N3CCCC3)c2)s1`, the AC50 is reported as > 42 µM (inactive).
In the case of `CCOC(=O)c1c(C)[nH]c(O)c1C=Nc1ccccc1`, the AC50 is reported as > 42 µM (inactive).
In the case of `O=C(O)CC(NC(=O)OCc1ccccc1)c1ccc(Br)cc1` (stereo not drawn), the AC50 is reported as > 42 µM (inactive).
`COc1ccc(-c2[nH]ncc2CNCCn2cccn2)c(F)c1` was tested, and the AC50 was > 42 µM (inactive).
In the case of `CC(=O)N1N=C(c2ccc(C(C)(C)C)cc2)OC1(C)C`, the AC50 is reported as > 42 µM (inactive).
`CC(=O)/C=C/n1c(=S)oc2ccccc21` gave an AC50 of 11.3 µM.
With `N#CC(C#N)=CN=c1ccn(Cc2ccc(Cl)cc2Cl)cc1` the AC50 was > 42 µM (inactive).
For `CN=C(Nc1cccnc1)c1ccccc1`, the AC50 was > 42 µM (inactive).
With `CCCCCCCN1C(Nc2ccccc2)=NC[C@@H]1CC(C)C` the AC50 was > 21 µM (inactive).
For `Cc1ccc(O)c(CNc2nc3ccccc3n2C)c1`, the AC50 was > 42 µM (inactive).
`N#C/C(=C\c1cc([N+](=O)[O-])c(N2CCOCC2)cc1N1CCOCC1)c1nc2ccccc2[nH]1` was tested, and the AC50 was > 42 µM (inactive).
With `CCOC(C(=O)OCCCN(CC)CC)(c1ccccc1)c1ccccc1` the AC50 was > 42 µM (inactive).
Compound `Oc1c(Br)cc(Cl)cc1C=Nc1ccccc1Br` has an AC50 of 4.15 µM.
For `COC(=O)c1ccccc1NC(=O)CSc1nnnn1CC(=O)O`, the AC50 was > 42 µM (inactive).
`CCn1cc(C(=O)N2CCN(c3ccc(OC)cc3)CC2)c(=O)c2cc(S(=O)(=O)N3CCOCC3)ccc21` was tested, and the AC50 was > 42 µM (inactive).
In the case of `C(=N\N1CCN(C2c3ccccc3-c3ccccc32)CC1)/c1ccncc1`, the AC50 is reported as 13.8 µM.
For `COc1ccc(/C=N/NC(=O)c2nnn(-c3nonc3N)c2-c2cccs2)cc1OC`, the AC50 was > 42 µM (inactive).
`CN(C)S(=O)(=O)c1ccc(Cl)c(NC(=O)CN2C(=O)NC(C)(C3CC3)C2=O)c1` (stereo not drawn) was tested, and the AC50 was > 42 µM (inactive).
`COc1cc(C(=O)NCCOc2cc(C)cc(C)c2)cc(OC)c1OC` was tested, and the AC50 was > 42 µM (inactive).
For `CCOC(=O)c1sc2ncnc(N3CCN(c4ccc(OC)cc4)CC3)c2c1C`, the AC50 was > 42 µM (inactive).
With `CCOc1ccc(NS(=O)(=O)c2ccc(C(=O)NCc3cccnc3)cc2)cc1` the AC50 was > 42 µM (inactive).
For `O=C(CC(c1ccccc1)c1ccccc1O)NCCN1CCOCC1` (stereo not drawn), the AC50 was > 42 µM (inactive).
For `COc1ccc(N=C2SC(C(=O)O)CC(=O)N2Cc2ccc(OC)c(OC)c2)cc1` (stereo not drawn), the AC50 was > 42 µM (inactive).
`CC(C)NC(=O)c1ccccc1-c1ccccc1` was tested, and the AC50 was > 42 µM (inactive).
With `CCOc1cc(S(=O)(=O)NCc2ccc3c(c2)OCO3)c(C)cc1C` the AC50 was > 42 µM (inactive).
With `COC(=O)C1C2C=CC3(CN(CCc4ccccc4)C(=O)C13)O2` (stereo not drawn) the AC50 was > 21 µM (inactive).
For `CCOc1ccccc1/C=N\Nc1cnn(Cc2ccccc2)c(=O)c1Cl`, the AC50 was > 42 µM (inactive).
`CCCc1ccc(S(=O)(=O)NCCc2ccncc2)cc1` was tested, and the AC50 was > 42 µM (inactive).
`c1ccc(CCCc2nc(-c3cccnc3)no2)cc1` was tested, and the AC50 was > 42 µM (inactive).
`CN(C)S(=O)(=O)c1cccc(NC(=O)COc2nc3ccccc3nc2N2CCOCC2)c1` was tested, and the AC50 was > 42 µM (inactive).
With `CN(C(=O)c1ccncc1)c1nnc(-c2cnccn2)s1` the AC50 was > 42 µM (inactive).
With `Cc1cnc(NC(=O)CN2CCN(c3ccccc3F)CC2)s1` the AC50 was > 42 µM (inactive).
`Cc1ccc(S(=O)(=O)N2[C@@H](c3ccc(Br)cc3)C(C(=O)O)=C[C@H]2CC2CCCC2)cc1` showed an AC50 of 3.51 µM.
For `Cc1nnc(C)n1/N=C/c1cc2ccccc2nc1Cl`, the AC50 was > 42 µM (inactive).
For `O=C(c1ccc(Br)cc1)C(CN1CCOCC1)c1ccccc1` (stereo not drawn), the AC50 was 0.65 µM.
For `CCNc1nc(NCC)nc(SCCOC(=O)Nc2ccccc2)n1`, the AC50 was > 42 µM (inactive).
For `Cc1ccc(NC(=O)COC(=O)c2csc3c2CCC(C)C3)cc1S(=O)(=O)N1CCCCC1` (stereo not drawn), the AC50 was > 42 µM (inactive).
`CC(C)C(=O)NCCSc1c[nH]c2ccccc12` was tested, and the AC50 was > 42 µM (inactive).
For `C/C(CC1(O)C(=O)Nc2ccccc21)=N\O` (stereo not drawn), the AC50 was > 42 µM (inactive).
For `Cn1c(=O)c2c(ncn2CC(=O)N2CCCCCC2)n(C)c1=O`, the AC50 was > 42 µM (inactive).
In the case of `COc1ccccc1N1CCN(C(=O)C2CCN(S(=O)(=O)c3ccc(C)cc3)CC2)CC1`, the AC50 is reported as > 42 µM (inactive).
For `Cc1ccc(S(=O)(=O)N2CCCC2C(=O)NCCc2ccccc2)cc1` (stereo not drawn), the AC50 was > 42 µM (inactive).
With `Cc1ccccc1-c1nc2ccc(Cl)cc2c(=O)n1O` the AC50 was > 42 µM (inactive).
`COCC(C)n1c(C)cc(C(=O)CSc2ccc(NC(C)=O)cc2)c1C` (stereo not drawn) was tested, and the AC50 was > 42 µM (inactive).
`CCC(C)(C)n1nnnc1C(c1ccc(OC)c(OC)c1)N1CCN(c2cccc(OC)c2)CC1` (stereo not drawn) was tested, and the AC50 was > 42 µM (inactive).
For `COc1cc(OC)cc(OC(=O)c2ccc3c(=O)n4c(nc3c2)CCC4)c1`, the AC50 was > 42 µM (inactive).
`Cc1ccc2c(c1)C(=O)N1[C@H]3c4ccccc4OC[C@@H]3[C@H](c3ccccc3)[C@]1(C)C(=O)N2` was tested, and the AC50 was 0.86 µM.
With `CC1Cc2ccccc2N1C(=O)Cn1c(=O)cc(O)c2ccccc21` (stereo not drawn) the AC50 was > 42 µM (inactive).
For `COc1ccc(NS(=O)(=O)c2cccc(C(=O)NCCCn3ccnc3)c2)cc1`, the AC50 was > 21 µM (inactive).
With `CC1CN(CCCOc2ccc([N+](=O)[O-])cc2)CC(C)O1` (stereo not drawn) the AC50 was > 42 µM (inactive).
With `C/C(=N\NC(=O)Cc1csc(N2CCOCC2)n1)c1ccccc1` the AC50 was > 42 µM (inactive).
`O=C(NCCCn1ccnc1)c1ccc(Cl)cc1` was tested, and the AC50 was > 42 µM (inactive).
In the case of `CC(=O)NCc1c(Cl)cccc1-n1cccc1`, the AC50 is reported as > 42 µM (inactive).
In the case of `O=S1(=O)CC(N2CCCCC2)C(N2CCCCC2)C1` (stereo not drawn), the AC50 is reported as > 42 µM (inactive).

From PubChem BioAssay AID463204 (Broad Institute, 2010)
